Measurements published in PubChem BioAssay (NCI).
Several values for one entry are separate records, joined by “and”; a condition that tells them apart may be missing. Identical values can stand only once.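 Each compound was tested at five concentrations against cells in 96-well plates for 48 hours. Here, GI50 denotes the concentration required for 50% inhibition of growth. Definition used: TGI = concentration required for complete inhibition of growth.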

Tests used:
Assay in all cases: DTP human tumour cell line panel, 48 h
HT29 colon = system: HT29 colon
TK-10 renal = system: TK-10 renal
SW-620 colon = system: SW-620 colon
RPMI-8226 leukemia = system: RPMI-8226 leukemia
OVCAR-3 ovarian = system: OVCAR-3 ovarian
HOP-62 NSCLC = system: HOP-62 NSCLC
OVCAR-5 ovarian = system: OVCAR-5 ovarian
NCI-H226 lung = system: NCI-H226 lung
HCT-15 colon = system: HCT-15 colon
HCT-116 colon = system: HCT-116 colon

Compound	GI50 (HT29 colon)	TGI (HT29 colon)	GI50 (TK-10 renal)	TGI (TK-10 renal)	GI50 (SW-620 colon)	TGI (SW-620 colon)	GI50 (RPMI-8226 leukemia)	TGI (RPMI-8226 leukemia)	GI50 (OVCAR-3 ovarian)	TGI (OVCAR-3 ovarian)	GI50 (HOP-62 NSCLC)	TGI (HOP-62 NSCLC)	GI50 (OVCAR-5 ovarian)	TGI (OVCAR-5 ovarian)	GI50 (NCI-H226 lung)	TGI (NCI-H226 lung)	GI50 (HCT-15 colon)	TGI (HCT-15 colon)	GI50 (HCT-116 colon)	TGI (HCT-116 colon)
O=C1/C(=C/c2cccc([N+](=O)[O-])c2)COc2ccc(O)cc21	1.92 µM	4.58 µM	2.77 µM	9.11 µM	0.521 µM	2.08 µM	0.236 µM	0.604 µM	1.71 µM	3.13 µM	3.21 µM	12.1 µM	2.11 µM	4.76 µM	2.19 µM	5.23 µM	1.7 µM	3.49 µM	1.19 µM	2.82 µM
CNS(=O)(=O)NNS(=O)(=O)c1ccc2ccccc2c1		> 100 µM		> 100 µM		> 100 µM		> 100 µM		> 100 µM		> 100 µM		> 100 µM		> 100 µM		> 100 µM		> 100 µM
c1ccc2cc(-c3cc(-c4cc(-c5ccc6ccccc6c5)on4)no3)ccc2c1		> 100 µM		> 100 µM		> 100 µM		> 100 µM		> 100 µM		> 100 µM		> 100 µM		> 100 µM		> 100 µM		> 100 µM
NC(=O)c1cccc2cn(-c3ccc([C@@H]4CCCNC4)cc3)nc12	12.9 µM	32 µM	24.1 µM	63.2 µM	10.4 µM	51.3 µM	22.5 µM	> 80.6 µM	14.8 µM	31.6 µM	8.44 µM	27.8 µM	24 µM	64.8 µM	14.4 µM	30.1 µM	14.8 µM	45.5 µM	10.8 µM	25.1 µM
COc1ccc(C(=O)Cn2c(C(=O)c3ccccc3)nc(-c3ccc(OC)cc3)c2-c2ccc(OC)cc2)cc1	> 100 µM	> 100 µM	> 100 µM	> 100 µM	> 100 µM	> 100 µM	> 100 µM	> 100 µM	> 100 µM	> 100 µM	74 µM	> 100 µM	> 100 µM	> 100 µM	> 100 µM	> 100 µM	> 100 µM	> 100 µM	> 100 µM	> 100 µM
COC1CCC(N2C(=O)CNc3ncc(-c4ccc(C(C)(C)O)nc4)nc32)CC1 (centres undefined)	1.83 µM and 0.472 µM	> 38.4 µM		5.58 µM and 1.86 µM	1.78 µM and 0.935 µM	> 37.5 µM	0.376 µM and 0.0559 µM	2.95 µM and 3.97 µM	0.904 µM and 0.248 µM	> 33 µM	1.92 µM and 0.437 µM	> 10 µM and 14.5 µM	0.918 µM and 0.273 µM	> 44.8 µM	0.305 µM and 0.226 µM	> 41.8 µM	0.732 µM and 0.293 µM	> 36.1 µM	2.07 µM and 0.809 µM	> 10 µM and 13.8 µM
O=C(Nc1ccc(Cl)c(Cl)c1)Nc1ccc(Cl)c(Cl)c1	3.27 µM and 2.43 µM	12.9 µM and 6.82 µM	3.3 µM and 2.59 µM	13.3 µM and 5.86 µM	3.36 µM and 3.12 µM	14.4 µM and 11.7 µM	1.79 µM and 0.997 µM	6.99 µM and 5.33 µM	3.03 µM and 1.66 µM	10.9 µM and 5.9 µM	3.02 µM and 5.73 µM	11.4 µM and 31.2 µM	2.74 µM and 4.27 µM	7.53 µM and 17.6 µM	3.05 µM and 3.22 µM	15.2 µM and 15.8 µM	2.9 µM and 3.01 µM	11.9 µM and 11.2 µM	2.85 µM and 2.1 µM	11 µM and 7.41 µM
OCc1ccc(N2CCC2c2ccc(F)cc2)cc1Cl (centres undefined)	5.13 µM	33 µM	0.225 µM	1.61 µM	4.93 µM	> 100 µM	6.56 µM	31.6 µM	2.34 µM	13.8 µM	10.1 µM	> 68 µM	0.256 µM	1.9 µM	0.0912 µM	0.322 µM	21.5 µM	> 100 µM	0.481 µM	> 38.2 µM
O=C(/C=C/C12c3ccccc3C(c3ccccc31)C1C(=O)NC(=O)C12)c1ccncc1 (centres undefined)	1.96 µM	4.35 µM	2.61 µM	7.75 µM	2.47 µM	7.95 µM	2.11 µM	5.48 µM	2.34 µM	5.96 µM	2.4 µM	6.73 µM	3.11 µM	13.5 µM	2.44 µM	6.98 µM	1.46 µM	3.94 µM	1.58 µM	4.31 µM
CC(=O)NNc1nc(C)c(C(=O)NNC(=O)C(=O)Nc2ccc(Cl)cc2)s1		> 100 µM		> 100 µM		> 100 µM		> 100 µM		> 100 µM		> 100 µM		> 100 µM		> 100 µM		> 100 µM		> 100 µM
COc1ccc(-c2nc3sccn3c2/C(N)=N/C(=N)N)cc1OC	58.4 µM	> 100 µM	28.6 µM	> 100 µM	28.4 µM	72.1 µM	58.5 µM	> 100 µM	31.8 µM	> 100 µM	24.6 µM	58.3 µM	78 µM	> 100 µM	45.1 µM	> 100 µM	> 100 µM	> 100 µM	19.1 µM	45.2 µM
NC(Cc1c[nH]c2c(O)cccc12)C(=O)O (centres undefined)	> 100 µM	> 100 µM	> 100 µM	> 100 µM	> 100 µM	> 100 µM	> 100 µM	> 100 µM	> 100 µM	> 100 µM	> 100 µM	> 100 µM	> 100 µM	> 100 µM	> 100 µM	> 100 µM	> 100 µM	> 100 µM	> 100 µM	> 100 µM
CCCCCCCCCCCOc1ccc(C(=O)C(=O)c2ccc(OCCCCCCCCCCC)c(OCCCCCCCCCCC)c2)cc1OCCCCCCCCCCC		> 100 µM		> 100 µM		> 100 µM		> 100 µM		> 100 µM		> 100 µM		> 100 µM		> 100 µM		> 100 µM		> 100 µM
COC(CN1C(=O)c2cccc3cccc(c23)C1=O)OC		> 100 µM		> 100 µM		> 100 µM		> 100 µM		> 100 µM		> 100 µM		> 100 µM		> 100 µM		> 100 µM		> 100 µM
